# Results from patent US8936807B2, “Use of the cathelicidin LL-37 and derivatives thereof for wound healing” (Lipopeptide AB, priority 2003, dated 2015).
# What was measured:
# [1] = Circular dichroism (CD) conformational measurements; format: physicochemical
# Procedure: (§1) Samples for circular dichroism (CD) measurements were prepared in 10 mM aqueous phosphate buffer solution, pH 7.0, containing 200 ppm LL-37 (as the trifluoroacetate, lot 971/26), with and without 0.40% CPL-Galactolipid. The samples, 20 ml in 50 ml glass flasks, were vigorously shaken with an ST mixer (type B1, E. Büchler, Tübingen) set at 7.5 (corresponding to an approximate frequency of 220/min) for 2 h. They were then allowed to equilibrate and settle over night at 2-8° C.
# CD spectra were recorded on a Jasco J-720 (Jasco Inc.) spectropolari-meter. The sample compartment with the cuvette cell (1 mm path length) was placed near the photomultiplier, in order to reduce effects of light scattering from the disper-sions. The samples were measured at room temperature and scanned from 280 to 200 nm at a rate of 20 nm/min, with a resolution of 1 nm and 3 accumulations per run. The results are expressed as the mean residue ellipticity, [θ], and the percentage of α-helical conformation at 222 nm is estimated by the following formula: ([θ]222+3900)·100/41900.
# [2] = Storage of the CD samples for one month at 4° C.; format: physicochemical
# Procedure: as §1
# An anionic synthetic phospholipid, palmitoyl-oleoyl-phosphatidylglycerol (POPG; Sigma-Aldrich, P6956) was used as a reference and tested using the same experimental conditions as described above.
# HaCat cells [3] = test: Proliferation of HaCat cells assessed by flowcytometry and Trypan-Blue; format: cell-based, human; conditions: for Increased Proliferation (%): vs baseline
# Procedure: HaCat cells were used for these experiments. HaCat cells are an immortalized human keratinocyte cell line (Boukamp et al., J Cell Biol 106:761-771, 1988), which is suitable for experimental keratinocyte research. HaCat cells were cultured in medium (DMEM, +10% FCS and PEST). Both types of cell cultures were treated with synthetic, bioactive LL-37 (lot YS 5253). […] Cells were harvested at different time-points (24 h, 48 h, 72 h and 96 h) and counted by flowcytometry (Becton-Dickinson) and stained by Trypan-Blue to evaluate viability. […] Proliferation and viability were also ascertained by measuring mitochondrial activity (WST-1, Roche, Cook et al. Anal Biochem 179:1-7, 1989).
# HaCat cells [4] = test: Proliferation of HaCat cells assessed by 3H-Thymidine incorporation; format: cell-based, human; conditions: 10% serum, 96 h; for Increased Proliferation (%): vs control 0 μg/ml
# Procedure: HaCat cells were cultured in medium (DMEM, +10% FCS and PEST). HaCaT cells were plated in 96 well plates (Falcon, USA) at the concentration of 2000 cells per well. Cells were plated at −48 hours and stimulated with different concen-trations of synthetic LL-37, LL-36, and LL-38 peptide by hour 0 and after 48 hours.
# The testing was done in one experiment with 6 wells in each condition. […] of ^3H-Thymidine (THYMIDINE, [METHYL-^3H]-740.0 GBq/mmol (20.00 Ci/mmol) 1.0 ml of Ethanol:Water, 7:3, Perkin Elmer Life Sciences Inc. Boston Mass., USA) was added to each well and incubated for 12-17 hours. Proliferation was evaluated by ^3H-Thymidine incorporation a liquid scintilator (MicroBeta Perkin Elmer Life Sciences Inc. Boston Mass., USA) after 72 and 96 hours.
# Human Wound Fibroblast = test: Proliferation and viability of human wound fibroblasts (WST-1); format: cell-based; conditions: 48 Hours; for Increased Proliferation (%): vs control
# Text: The peptide LL-37 used in this and following tests was as described in Example 1 (lot 971/26). The fibroblasts, a type of stromal cells, were obtained from injured and uninjured skin in patients with chronic leg ulcers due to venous insufficiency. Punch-biopsies (4-mm) were taken from the wound margin including 50% of the epithelialized area and from uninjured skin in the knee region. Individuals with a history of diabetes mellitus, arterial insufficiency or chronic inflammatory disease were excluded. Patients with signs of eczema in the ulcer margin, clinical signs of infection or undergoing systemic or topical antibiotic treatment at the time for biopsy were also excluded. Patients included were all treated with inert local dressings and standard compression bandaging.
# Fibroblast were put in culture using explant technique (Hehenberger et al., Cell Biochem Funct 15:197-201, 1997). Fibroblasts were plated in 96 well plates (Falcon, USA) at the concentration of 2000 cells per well. Cells were plated at −48 hours and stimulated with different concentrations of synthetic LL-37 peptide by hour 0. The testing was done in one experiment with 6 wells in each condition. Proliferation and viability were ascertained by measuring mitochondrial activity (WST-1, Roche) after 24 h and 48 h. Increase in cell proliferation (Proliferation Index) is calculated in comparison with baseline (Control=0 μg/ml). Mean values from six samples per condition in one experiment are presented.
# [5] = LL-37 25 μg/ml, 10% serum, 96 h
# [6] = LL-37 50 μg/ml, 10% serum, 96 h
# [7] = LL-37 100 μg/ml, 2% serum, 96 h
# [8] = LL-37 100 μg/ml, 10% serum, 96 h
# [9] = LL-37 100 μg/ml, no lipid, 2% serum, 72 h
# [10] = LL-37 100 μg/ml, no lipid, 10% serum, 72 h
# [11] = LL-37 100 μg/ml, with lipid 0.2%, 2% serum, 72 h
# [12] = LL-37 100 μg/ml, with lipid 0.2%, 10% serum, 72 h
# [13] = LL-37 25 μg/ml, no lipid, 10% serum
# [14] = LL-37 50 μg/ml, no lipid, 10% serum
# [15] = LL-37 100 μg/ml, no lipid, 10% serum
# [16] = LL-37 100 μg/ml, with lipid 0.2%, 2% serum
sequence,measurement,setting,value
LLGDFFRKSKEKIGKEFKRIVQRIKDFLRNLVPRTES [LL-37],percentage α-helical structure,"[1]; 200 ppm LL-37 in 10 mM phosphate buffer, pH 7.0, from minimum at 222 nm",about 63%
same,percentage α-helical structure,"[1]; 200 ppm LL-37 with 0.40% (w/w) galactolipid, 10 mM phosphate buffer pH 7.0",~64%
same,percentage α-helical structure,"[1]; LL-37 with POPG (anionic phospholipid), same conditions",58%
same,appearance after storage,[2]; LL-37 with POPG,"partially separated, with sediments on the bottom of the container"
same,appearance after storage,[2]; LL-37 with galactolipid,redispersed to a fine dispersion by gentle agitation
same,Number of Cells (Mean),"HaCat cells [3]; LL-37 25 μg/ml, 2% serum, 96 h",32130
same,Trypan Blue + (%),"HaCat cells [3]; LL-37 25 μg/ml, 2% serum, 96 h",<1%
same,Increased Proliferation (%),"HaCat cells [3]; LL-37 25 μg/ml, 2% serum, 96 h",0%
same,Number of Cells (Mean),HaCat cells [3]; [5],36470
same,Trypan Blue + (%),HaCat cells [3]; [5],<1%
same,Increased Proliferation (%),HaCat cells [3]; [5],13%
same,Number of Cells (Mean),"HaCat cells [3]; LL-37 50 μg/ml, 2% serum, 96 h",53620
same,Trypan Blue + (%),"HaCat cells [3]; LL-37 50 μg/ml, 2% serum, 96 h",30-50%
same,Increased Proliferation (%),"HaCat cells [3]; LL-37 50 μg/ml, 2% serum, 96 h",Cytotoxic effect
same,Number of Cells (Mean),HaCat cells [3]; [6],40950
same,Trypan Blue + (%),HaCat cells [3]; [6],<1%
same,Increased Proliferation (%),HaCat cells [3]; [6],27%
same,Number of Cells (Mean),HaCat cells [3]; [7],15120
same,Trypan Blue + (%),HaCat cells [3]; [7],100%
same,Increased Proliferation (%),HaCat cells [3]; [7],Cytotoxic effect
same,cytotoxic effect when lipid was added (in words),"HaCat cells [3]; LL-37 100 μg/ml, 2% serum, lipid added",completely abolished
same,Number of Cells (Mean),HaCat cells [3]; [8],66430
same,Trypan Blue + (%),HaCat cells [3]; [8],<1%
same,Increased Proliferation (%),HaCat cells [3]; [8],100%
same,Trypan Blue staining (in words),"HaCat cells [3]; LL-37 100 μg/ml, medium containing 2% FCS",all of the keratinocytes became positive with Trypan Blue staining
same,Number of Cells (Mean),HaCat cells [3]; [9],150500
same,Trypan Blue + (%),HaCat cells [3]; [9],100%
same,Increased Proliferation (%),HaCat cells [3]; [9],Cytotoxic effect
same,Number of Cells (Mean),HaCat cells [3]; [10],88853
same,Trypan Blue + (%),HaCat cells [3]; [10],<1%
same,Increased Proliferation (%),HaCat cells [3]; [10],61%
same,Number of Cells (Mean),HaCat cells [3]; [11],87360
same,Trypan Blue + (%),HaCat cells [3]; [11],<1%
same,Increased Proliferation (%),HaCat cells [3]; [11],58%
same,Number of Cells (Mean),HaCat cells [3]; [12],91980
same,Trypan Blue + (%),HaCat cells [3]; [12],<1%
same,Increased Proliferation (%),HaCat cells [3]; [12],66%
same,proliferation of HaCat cells (in words),"HaCat cells [3]; LL-37 25-100 μg/ml, media with 10% FCS",increases proliferation in a concentration-dependent manner
same,Counts Per Minute (Mean),HaCat cells [4]; LL-37 1.00 μg/ml,75445 Counts Per Minute
same,Increased Proliferation (%),HaCat cells [4]; LL-37 1.00 μg/ml,43%
same,Counts Per Minute (Mean),HaCat cells [4]; LL-37 5.00 μg/ml,102353 Counts Per Minute
same,Increased Proliferation (%),HaCat cells [4]; LL-37 5.00 μg/ml,94%
same,Counts Per Minute (Mean),HaCat cells [4]; LL-37 10.00 μg/ml,73548 Counts Per Minute
same,Increased Proliferation (%),HaCat cells [4]; LL-37 10.00 μg/ml,39%
same,Counts Per Minute (Mean),HaCat cells [4]; LL-37 25.00 μg/ml,76510 Counts Per Minute
same,Increased Proliferation (%),HaCat cells [4]; LL-37 25.00 μg/ml,45%
same,Counts Per Minute (Mean),HaCat cells [4]; LL-37 50.00 μg/ml,65119 Counts Per Minute
same,Increased Proliferation (%),HaCat cells [4]; LL-37 50.00 μg/ml,23%
same,Absorbance,Human Wound Fibroblast; [13],1.171
same,Increased Proliferation (%),Human Wound Fibroblast; [13],49%
same,Absorbance,Human Wound Fibroblast; [14],1.073
same,Increased Proliferation (%),Human Wound Fibroblast; [14],37%
same,Absorbance,Human Wound Fibroblast; [15],0.955
same,Increased Proliferation (%),Human Wound Fibroblast; [15],22%
same,Absorbance,Human Wound Fibroblast; [16],0.960
same,Increased Proliferation (%),Human Wound Fibroblast; [16],22%
